Experimental data reported in patent US20260216197A1, “WRN HELICASE INHIBITOR” (SUZHOU PUHE BIOPHARMA CO., LTD., priority 2022, published 2026).

Experiments:
[1] = system: MSS colorectal cancer HT-29 cell line; assay: 2D anti-proliferative activity, MSS HT-29 cells (CTG, 5 days); assay type: cell-based
Method: The molecules of the present disclosure were tested for their anti-proliferative activity against MSS tumor cells.
(§1) The MSS HT-29 colorectal cancer cells were cultured in McCoy's 5A medium containing 10% FBS and 1% penicillin-streptomycin in a 37° C., 5% CO2 constant temperature incubator. A 40 μL cell suspension was added to each well of a 384-well microplate. Using Echo, 40 nL of compounds at different concentrations was dispensed into each well, followed by incubation in a 37° C., 5% CO2 constant temperature incubator for 5 days. Then, 40 μL of CTG solution (Promega, Cat No. G7573) was added to each well, and the plate was incubated in the dark in a 37° C., 5% CO2 constant temperature incubator for 30 minutes. Luminescence was measured using an Envision multi-function microplate reader (Perkin Elmer, Model: Envision 2104). The luminescent signal was proportional to the amount of ATP in the system, and the amount of ATP directly represented the number of living cells in the system.

[2] = system: MSI-H colorectal cancer SW48 cell line; assay: 2D anti-proliferative activity, MSI-H SW48 cells (CTG, 5 days); assay type: cell-based
Method: The molecules of the present disclosure were tested for their anti-proliferative activity against MSI-H tumor cells.
The proliferation of tumor cells with microsatellite instability MSI-H is sensitive to WRN inhibitors, while the proliferation of microsatellite stable (MSS) tumor cells is insensitive to WRN inhibitors. By testing the activities of the two, it is shown that the molecules of the present disclosure have an inhibitory and synthetic lethal effect on WRN at the cellular level.
as §1, with “MSI-unstable SW48” for “MSS HT-29”, “RPMI 1640” for “McCoy's 5A”

[3] = system: SW 48 (MSI-H) colorectal cancer cells; assay: In vivo pharmacodynamic assay, SW48 xenograft in nude mice; set-up: species or system BALB/c nude mice; details: 120 mg/kg, QD, oral
Method: In vivo pharmacodynamic assay in BALB/c nude mice. Details are as follows:
SW 48 (MSI-H) colorectal cancer cells were cultured (L15 medium with 10% fetal bovine serum), and then inoculated into 6-8-week old female BALB/c nude mice (weighing about 20 g), wherein all mice were inoculated subcutaneously. The mice were cultured in an SPF-grade experimental environment, and all mice had free access to commercially certified standard diets. When the average tumor volume of the mice grew to about 150 mm^3, the test compound was orally administered daily. The dosage was as follows: blank group vehicle (10% HP-β-CD aqueous solution, pH-7). The dosage of the administration group was 120 mg/kg, 50 mg/kg, or 20 mg/kg, once a day. The tumor volume was measured with a two-dimensional caliper three times a week, and the animals were weighed every day. […] The tumor volume was calculated using the formula: V=½a*b^2, where a represents the long diameter of the tumor, and b represents the short diameter of the tumor.

[4] = Liver microsome stability test; assay type: in vitro ADME; details: human liver microsomes 0.5 mg/mL, compound 1 μM, NADPH 1 mM, 60 minutes
Method: The liver microsome stability test of the compounds is as follows:
The compounds of the present disclosure were subjected to a liver microsome stability test. The compounds to be tested were co-incubated with liver microsomes of different species with or without the addition of NADPH. The final concentration of the compounds to be tested in the test system was 1 μM, the final concentration of NADPH was 1 mM, and the final concentration of liver microsomes was 0.5 mg/mL.

[5] = molecular target: WRN helicase (Homo sapiens, UniProt Q14191); assay: WRN helicase hydrolysis/unwinding of double-stranded DNA (fluorescence); assay type: biochemical
Method: The activity of the molecules of the present disclosure on the hydrolysis of double-stranded PP-6TR DNA by WRN helicase was tested.
The working solution and buffer were prepared, and the test compound was dissolved in DMSO followed by a4-fold dilution (with a final concentration of 10 μM as the starting concentration). Then, 0.2 μL of the test compound solution was added to a384-well plate, followed by 10 μL of (2×) WRN enzyme solution. The mixture was incubated in the dark for 30 minutes, after which 10 μL of substrate detection solution containing double-stranded DNA was added to initiate the reaction (DNA length: 19 bp, labeled with TAMRA at the 3′ end and BHQ2 at the 5′ end). The mixture was incubated at room temperature for 60 minutes. The inhibitory activity (IC50) against the WRN enzyme was calculated based on the fluorescence change (Ex530/Em590) between the blank group (DMSO) and the compound group.

[6] = Pharmacokinetic evaluation in mice; assay type: in vivo, CD1 female mice
Method: CD1 female mice were used as test animals and the drug was administered orally/intravenously (oral dosage: 10 mg/kg, intravenous dosage: 2 mg/kg).
Assay protocol: The oral group consisted of 3 mice per group (vehicle: 10% Hβ-CD-pH7.4), and the intravenous group consisted of 3 mice per group. […] The blood concentrations in plasma after oral and intravenous administration of mice were determined by LC/MS/MS, respectively.

WRN helicase, sequence (Q14191 whole entry): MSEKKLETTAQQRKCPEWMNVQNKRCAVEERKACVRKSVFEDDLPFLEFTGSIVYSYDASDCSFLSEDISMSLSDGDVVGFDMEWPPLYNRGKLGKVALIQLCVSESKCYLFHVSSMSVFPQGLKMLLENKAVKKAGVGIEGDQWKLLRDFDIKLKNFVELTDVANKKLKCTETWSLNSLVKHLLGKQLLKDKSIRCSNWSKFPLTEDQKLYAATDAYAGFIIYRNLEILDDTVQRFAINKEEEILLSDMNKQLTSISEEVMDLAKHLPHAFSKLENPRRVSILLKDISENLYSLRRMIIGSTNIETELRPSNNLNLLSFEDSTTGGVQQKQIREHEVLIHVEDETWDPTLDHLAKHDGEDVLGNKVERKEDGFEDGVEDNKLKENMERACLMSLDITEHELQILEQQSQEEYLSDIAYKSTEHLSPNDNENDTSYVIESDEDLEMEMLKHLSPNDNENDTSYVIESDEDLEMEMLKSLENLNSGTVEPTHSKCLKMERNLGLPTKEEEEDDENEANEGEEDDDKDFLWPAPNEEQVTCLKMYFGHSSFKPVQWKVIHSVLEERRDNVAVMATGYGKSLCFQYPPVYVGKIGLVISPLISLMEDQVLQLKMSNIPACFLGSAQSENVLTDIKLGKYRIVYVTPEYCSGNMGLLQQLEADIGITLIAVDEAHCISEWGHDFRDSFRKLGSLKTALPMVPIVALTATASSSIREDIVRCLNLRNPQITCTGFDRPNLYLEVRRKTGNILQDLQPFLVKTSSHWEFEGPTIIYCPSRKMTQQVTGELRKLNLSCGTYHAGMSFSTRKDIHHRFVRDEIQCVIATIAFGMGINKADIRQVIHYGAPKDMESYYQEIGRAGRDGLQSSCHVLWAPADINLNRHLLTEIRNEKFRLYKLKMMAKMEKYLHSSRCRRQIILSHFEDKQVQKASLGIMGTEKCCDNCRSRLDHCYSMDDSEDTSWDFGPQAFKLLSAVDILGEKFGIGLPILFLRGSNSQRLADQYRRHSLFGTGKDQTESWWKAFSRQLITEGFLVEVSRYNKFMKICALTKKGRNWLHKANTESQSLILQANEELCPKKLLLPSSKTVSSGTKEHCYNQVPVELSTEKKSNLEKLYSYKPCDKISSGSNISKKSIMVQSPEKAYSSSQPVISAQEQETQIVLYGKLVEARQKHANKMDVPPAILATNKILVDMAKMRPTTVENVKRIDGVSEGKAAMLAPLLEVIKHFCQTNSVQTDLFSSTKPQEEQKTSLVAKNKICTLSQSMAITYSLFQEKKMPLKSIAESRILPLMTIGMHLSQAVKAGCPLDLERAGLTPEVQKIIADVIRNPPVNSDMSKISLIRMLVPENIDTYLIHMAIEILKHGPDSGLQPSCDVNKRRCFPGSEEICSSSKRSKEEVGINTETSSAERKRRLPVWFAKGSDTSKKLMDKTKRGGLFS

IC50 [1]: > 10000 nM
IC50 ([2]; 5 days): 55 nM
Human Clint μL/min/mg Protein [4]: 14.8 μL/min/mg Protein
Human Clint/(mL/min/kg) [4]: 18.5 mL/min/kg
IC50 [5]: 1.5 nM
in vivo exposure compared with reference molecule A1 [6]: higher in vivo exposure
AUC0-24 ([6]; IV 2 mg/kg): 1421 ng·h/mL
C0 ([6]; IV 2 mg/kg): 3299 ng/mL
Cl ([6]; IV 2 mg/kg): 23.4 mL/min/kg
T1/2 ([6]; IV 2 mg/kg): 1.6 h
AUC0-24 ([6]; PO 10 mg/kg): 5599 ng·h/mL
Cmax ([6]; PO 10 mg/kg): 4645 ng/mL
T1/2 ([6]; PO 10 mg/kg): 1.2 h
Tmax ([6]; PO 10 mg/kg): 0.5 h
F ([6]; PO 10 mg/kg vs IV 2 mg/kg): 79%
Compound: CCc1c(N2CCN(C(=O)c3ncnc(C)c3O)CC2)c(=O)n2nc(C3=CCOCC3)nc2n1CC(=O)Nc1ccc(C(F)(F)F)c2ccsc12 [Compound H1]
Average value/ Inhibition rate ([2]; 0.038146973 nM): −7.8792
Test 1/ Inhibition rate ([2]; 0.038146973 nM): −7.3699
Test 2/ Inhibition rate ([2]; 0.038146973 nM): −8.3885
Average value/ Inhibition rate ([2]; 0.152587891 nM): −7.2326
Test 1/ Inhibition rate ([2]; 0.152587891 nM): −8.9847
Test 2/ Inhibition rate ([2]; 0.152587891 nM): −5.4804
Average value/ Inhibition rate ([2]; 0.610351563 nM): −7.2423
Test 1/ Inhibition rate ([2]; 0.610351563 nM): −8.9821
Test 2/ Inhibition rate ([2]; 0.610351563 nM): −5.5025
Average value/ Inhibition rate ([2]; 2.44140625 nM): −1.2893
Test 1/ Inhibition rate ([2]; 2.44140625 nM): −5.0894
Test 2/ Inhibition rate ([2]; 2.44140625 nM): 2.5108
Average value/ Inhibition rate ([2]; 9.765625 nM): −9.8115
Test 1/ Inhibition rate ([2]; 9.765625 nM): −9.6799
Test 2/ Inhibition rate ([2]; 9.765625 nM): −9.9432
inhibitory activity on SW48 cells ([2]; 39 nM): high inhibitory activity
Average value/ Inhibition rate ([2]; 39.0625 nM): 12.6131
Test 1/ Inhibition rate ([2]; 39.0625 nM): 9.3323
Test 2/ Inhibition rate ([2]; 39.0625 nM): 15.8938
Average value/ Inhibition rate ([2]; 156.25 nM): 98.3044
Test 1/ Inhibition rate ([2]; 156.25 nM): 98.4846
Test 2/ Inhibition rate ([2]; 156.25 nM): 98.1243
Average value/ Inhibition rate ([2]; 625 nM): 98.5020
Test 1/ Inhibition rate ([2]; 625 nM): 98.3268
Test 2/ Inhibition rate ([2]; 625 nM): 98.6771
Average value/ Inhibition rate ([2]; 2500 nM): 99.9213
Test 1/ Inhibition rate ([2]; 2500 nM): 99.6262
Test 2/ Inhibition rate ([2]; 2500 nM): 100.2164
Average value/ Inhibition rate ([2]; 10000 nM): 100.6963
Test 1/ Inhibition rate ([2]; 10000 nM): 100.7430
Test 2/ Inhibition rate ([2]; 10000 nM): 100.6495
TGI [3]: 105%
Tumor volume (mm^3)-D 1 ([3]; day 1): 171 mm^3
Tumor volume (mm^3)-D 21 ([3]; day 21): 28 mm^3
